The text below walks through data of US12024506B2, “Compounds” (Oxford University Innovation Limited, priority 2018, dated 2024).

For assay [1], the target named is T1, KRASG12D interaction with PI3Kα, PI3Kγ, CRAF RBD, RALGDS RA (Homo sapiens, UniProt P01116, G12D).
T1 construct: expressed in transfected cells; host or cells: HEK293T
In words: BRET2 cell assay, KRAS G12D-effector interaction. The class given is cell-based. The conditions noted are these: HEK293T cells, 5, 10 and 20 μM, 20 h. The source says:
(§1) The BRET ratio corresponds to the light emitted by the GFP2 acceptor constructs (515 nm±30) upon addition of Coelenterazine 400a divided by the light emitted by the RLuc8 donor constructs (410 nm±80). The normalized BRET ratio is the BRET ratio normalized to the DMSO negative and calculated as follows: (BRETcompound/BRETDMSO)×100, where BRETcompound corresponds to the BRET ratio for the compound-treated cells, BRETDMSO to the DMSO-treated cells. Each experiment was repeated at least three times. Statistical analyses were performed using a one-way ANOVA followed by Dunnett's post-tests (*P<0.05, **P<0.01, ***P<0.001, ****P<0.0001). Where error bars are presented, they correspond to mean values±SD of biological repeats (a-c).
(§2) 650,000 HEK293T were seeded in each well of a 6 well plate. 24 hours later, cells were transfected with an appropriated BRET-based RAS biosensor (i.e. RAS-effector) using Lipofectamine 2000 transfection reagent (Thermo-Fisher). […] The final concentrations in the cells were 0, 5, 10 and 20 µM (therefore the intermediate 10× concentrations were 0, 50, 100 and 200 μM. 10 μL of 10× compounds were added in each well of the 96 well plate to 0, 5, 10 and 20 µM final concentrations (with final 0.2% DMSO each). Quadruplicates were performed for each point. Cells were left for an additional 20 hours at 37° C. before the BRET2 signal reading directly after addition of Coelenterazine 400a substrate (10 µM final) to cells (Cayman Chemicals, cat #16157). BRET2 reading was carried out on an Envision instrument (2103 Multilabel Reader, PerkinElmer) with the BRET2 Dual Emission optical module (515 nm±30 and 410 nm±80; PerkinElmer).
(§3) The ability of Example compound 56 to inhibit RAS-effector PPI using the above cell-based RAS-effector BRET2 assay was investigated. […] We determined the effect of compound 56 (labelled Abd-7) on the interaction of KRAS^G12D and with PI3Kα and PI3Kγ, CRAF RAS-binding domain (RBD) and RALGDS RAS-associating domain (RA) compared with the low affinity Reference Compound Abd-2 FIG. 1a). […]
For orientation: In BRET a luciferase serves as donor, and the signal depends on an acceptor being close.

The target of assay [2] is T2, NRASQ61H interaction with PI3K, CRAF, RALGDS (Homo sapiens, UniProt P01111, Q61H).
T2 construct: expressed in transfected cells; host or cells: HEK293T
Description: BRET2 cell assay, NRAS Q61H-effector interaction. The class given is cell-based. The conditions noted are these: HEK293T cells, 5, 10 and 20 μM, 20 h.
Source text: as §1
(§4) HEK293T cells were transfected 24 hr with plasmids expressing the NRAS Q61H […] and HRAS G12V (B, D) biosensors together with the indicated RBDs of PI3K, CRAF and RALGDS (A, B) or full-length CRAF. […]
as §2, with “plate.” for “plate. 24 hours later, cells were transfected with an appropriated BRET-based RAS biosensor (i.e. RAS-effector) using Lipofectamine 2000 transfection reagent (Thermo-Fisher).”
as §3

Assay [3] concerns the target T3, HRASG12V interaction with PI3K, CRAF, RALGDS (Homo sapiens, UniProt P01112, G12V).
T3 construct: expressed in transfected cells; host or cells: HEK293T
Description: BRET2 cell assay, HRAS G12V-effector interaction. The conditions noted are these: HEK293T cells, 5, 10 and 20 μM, 20 h. The class given is cell-based.
Source text: as §1, §4
as §2, with “plate.” for “plate. 24 hours later, cells were transfected with an appropriated BRET-based RAS biosensor (i.e. RAS-effector) using Lipofectamine 2000 transfection reagent (Thermo-Fisher).”
as §3

Assay [4] addresses T4, GST-human KRas166 (G12V) GPPNHP (Homo sapiens, UniProt P01116, G12V).
T4 construct: made in house; host or cells: E. coli C41(DE3)
Description: KRas small-molecule screening by SPR (Biacore T200). Format: binding. The note with it: compound 100 uM, 5% DMSO buffer; immobilised GST-KRas166 (G12V) GPPNHP. Summed up: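 GST-KRas166 G12V loaded with GPPNHP, captured on anti-GST CM5 chip at 10,000–15,000 RU, GST reference channel. Compounds run at 100 uM in buffer with 100 mM NaCl, 5 mM MgCl2, 5% DMSO, with DMSO solvent correction; Rmax for 1:1 binding taken as 63 RU.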
(SPR reads the build-up and loss of mass on a sensor chip optically.)

The subject of assay [5] is H358 cells (ATCC CRL-5807). In words: Cell viability assay 1 (CellTiter-Glo), H358 cells. The note with it: Homo sapiens, NCI-H358, 48 h, first value of the cell, read-out: Cell Viability H358 (concentration that decreases cell viability by 50%). The class given is cell-based. Summed up:
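H358 cells were grown in RPMI-1640 with 10% FCS and 2 mM L-glutamine, plated at 5000 cells/well and allowed to adhere overnight. Compound was added in 0.5% DMSO final for 48 h at 37° C. Viability was read by CellTiter-Glo luminescence, with the 50% viability-reducing concentration derived from dose-response curves.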
(ATP-based viability assays read luminescence as a measure of living cells.)

For assay [6], the system named is DLD1 cells (ATCC CCL-221). Description: Cell viability assay 1 (CellTiter-Glo), DLD1 cells. Format: cell-based. The conditions noted are these: Homo sapiens, DLD-1 cells, 48 h, second value of the cell, read-out: Cell Viability DLD-1 (concentration that decreases cell viability by 50%). Summed up: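 DLD1 cells grown in RPMI-1640 with 10% FCS, 2 mM L-glutamine, 37 °C, 5% CO2, plated overnight then exposed to compound (0.5% DMSO) for 48 h. Viability by CellTiter-Glo luminescence; value is concentration reducing viability by 50% from dose-response curves.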

The structures appear in SMILES notation. Entries after “also recorded” stand apart in the source; their conditions may differ.

As for `O=C(NCC1COc2ccccc2O1)c1ccco1` (stereo not drawn) [Abd-2, reference compound], the “Effect on BRET signal, KRAS G12D/effector interactions” value in assay [1] was “no effect on the BRET signal; also recorded: not with the Abd-2”. For the same compound, the “Effect on BRET signal, NRAS Q61H/effector interactions” value in assay [2] is “does not interfere with the BRET signal”. The “Effect on BRET signal, HRAS G12V/effector interactions” value in assay [3] is listed as “does not interfere with the BRET signal”.
As to `COc1nc(-c2cccc3c2OCCO3)ccc1Nc1ccc(CN2CCN(Cc3cccnc3)CC2)cc1` [Example 199, [6-(2,3-Dihydro-benzo[1,4]dioxin-5-yl)-2-methoxy-pyridin-3-yl]-[4-(4-pyridin-3-ylmethyl-piperazin-1-ylmethyl)-phenyl]-amine], in assay [4], the “SPR Response Units” value is recorded as 93 Response Units. Further, the IC50 in assay [5] amounted to 24.2 µM; in assay [6] it was 6.5 µM.
For `COc1nc(-c2cccc3c2OCCO3)ccc1Nc1cccc(CN2CCCC(C(N)=O)C2)c1` (stereo not drawn) [Example 200, 1-{3-[6-(2,3-Dihydro-benzo[1,4]dioxin-5-yl)-2-methoxy-pyridin-3-ylamino]-benzyl}-piperidine-3-carboxylic acid amide], the “SPR Response Units” value in assay [4] is listed as 424 Response Units. For the same compound, the IC50 in assay [5] stood at 1.5 µM; in assay [6], 8.6 µM.
Take `COc1nc(-c2cccc3c2OCCO3)ccc1Nc1ccc(CNCC2CCNC(=O)C2)cc1` (stereo not drawn) [Example 201, 4-({4-[6-(2,3-Dihydro-benzo[1,4]dioxin-5-yl)-2-methoxy-pyridin-3-ylamino]-benzylamino}-methyl)-piperidin-2-one]: the “SPR Response Units” value in assay [4] was found to be 209 Response Units. Besides, the values for the IC50 in assay [5] and in assay [6] were 6.8 µM and 10.5 µM, respectively.
As for `COc1nc(-c2cccc3c2OCCO3)ccc1Nc1cccc(CC(=O)NCC2CCN(C)CC2)c1` [Example 202, 2-{3-[6-(2,3-Dihydro-benzo[1,4]dioxin-5-yl)-2-methoxy-pyridin-3-ylamino]-phenyl}-N-(1-methyl-piperidin-4-ylmethyl)-acetamide], the “SPR Response Units” value in assay [4] amounted to 387 Response Units. Besides, the IC50 in assay [5] was 17.5 µM; in assay [6], 10.5 µM.
Regarding `COc1nc(-c2cccc3c2OCCO3)ccc1Nc1cccc(CC(=O)NC2CCN(C)CC2)c1` [Example 203, 2-{3-[6-(2,3-Dihydro-benzo[1,4]dioxin-5-yl)-2-methoxy-pyridin-3-ylamino]-phenyl}-N-(1-methyl-piperidin-4-yl)-acetamide], the “SPR Response Units” value in assay [4] was 339 Response Units. The IC50 is 33.7 µM in assay [5] and 12.2 µM in assay [6].
For the compound `COc1nc(-c2cccc3c2OCCO3)ccc1Nc1cccc(CC(=O)N2CCN(C)CC2)c1` [Example 204, 2-{3-[6-(2,3-Dihydro-benzo[1,4]dioxin-5-yl)-2-methoxy-pyridin-3-ylamino]-phenyl}-1-(4-methyl-piperazin-1-yl)-ethanone], in assay [4], the “SPR Response Units” value is reported as 423 Response Units. For the same compound, the IC50 in assay [5] was 19.8 µM; in assay [6] it was 17.6 µM.
Turning to `COc1nc(-c2cccc3c2OCCO3)ccc1Nc1cccc(CC(=O)NC2CCNC(=O)C2)c1` (stereo not drawn) [Example 205, 2-{3-[6-(2,3-Dihydro-benzo[1,4]dioxin-5-yl)-2-methoxy-pyridin-3-ylamino]-phenyl}-N-(2-oxo-piperidin-4-yl)-acetamide], the “SPR Response Units” value in assay [4] stood at 142 Response Units. Besides, the IC50 in assay [5] was found to be 12.2 µM; in assay [6], 51.6 µM.
With `COc1nc(-c2cccc3c2OCCO3)ccc1Nc1cccc(CC(=O)NC2CCC(=O)NC2)c1` (stereo not drawn) [Example 206, 2-{3-[6-(2,3-Dihydro-benzo[1,4]dioxin-5-yl)-2-methoxy-pyridin-3-ylamino]-phenyl}-N-(6-oxo-piperidin-3-yl)-acetamide], the “SPR Response Units” value in assay [4] worked out at 151 Response Units. Further, the IC50 in assay [5] came to 11 µM; in assay [6], 35.9 µM.
Regarding `COc1nc(-c2cccc3c2OCCO3)ccc1Nc1cccc(CN2CCNCC2)c1` [Example 207, [6-(2,3-Dihydro-benzo[1,4]dioxin-5-yl)-2-methoxy-pyridin-3-yl]-(3-piperazin-1-ylmethyl-phenyl)-amine], the “SPR Response Units” value in assay [4] is listed as 1189 Response Units. The IC50 in assay [5] is 5.8 µM; in assay [6], 22 µM.
As to `COc1nc(-c2cccc3c2OCCO3)ccc1Nc1cccc(CN2CCN(Cc3cn[nH]c3)CC2)c1` [Example 208, [6-(2,3-Dihydro-benzo[1,4]dioxin-5-yl)-2-methoxy-pyridin-3-yl]-{3-[4-(1H-pyrazol-4-ylmethyl)-piperazin-1-ylmethyl]-phenyl}-amine], the “SPR Response Units” value in assay [4] is reported as 1266 Response Units. Further, the IC50 was determined as 17.4 µM in assay [5] and 5.8 µM in assay [6].
As for `COc1nc(-c2cccc3c2OCCO3)ccc1Nc1cccc(CNCc2cc[nH]n2)c1` [Example 209, [6-(2,3-Dihydro-benzo[1,4]dioxin-5-yl)-2-methoxy-pyridin-3-yl]-(3-{[(1H-pyrazol-3-ylmethyl)-amino]-methyl}-phenyl)-amine], in assay [4], the “SPR Response Units” value stood at 310 Response Units. For the same compound, the IC50 in assay [5] was 13.4 µM; in assay [6], 14.7 µM.
